SMILES strings stand for the structures. Counter-ions that a name gives are not always drawn.

The target of the test is T1, NK1 receptor (Homo sapiens, UniProt P25103).
T1 construct: Measurement of NK1 Receptor Mediated Intracellular [Ca^2+]; Mobilization in U251 MG Cells Using FLIPR; endogenous in cells; host or cells: U251 MG cells
T1 sequence (P25103 whole entry): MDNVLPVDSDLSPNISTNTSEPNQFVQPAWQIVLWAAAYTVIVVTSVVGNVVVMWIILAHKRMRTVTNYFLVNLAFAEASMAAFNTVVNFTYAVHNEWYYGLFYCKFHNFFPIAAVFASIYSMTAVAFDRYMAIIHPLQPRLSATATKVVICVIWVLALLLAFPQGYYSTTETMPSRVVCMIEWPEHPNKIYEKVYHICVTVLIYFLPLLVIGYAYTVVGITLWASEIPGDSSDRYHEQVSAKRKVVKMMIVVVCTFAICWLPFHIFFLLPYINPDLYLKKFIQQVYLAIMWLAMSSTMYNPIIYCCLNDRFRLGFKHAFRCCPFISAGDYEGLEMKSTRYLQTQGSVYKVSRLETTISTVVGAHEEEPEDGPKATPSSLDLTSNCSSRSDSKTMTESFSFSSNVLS
In words: NK1 receptor mediated intracellular [Ca2+] mobilization in U251 MG cells using FLIPR. Type of test: cell-based. As to conditions: antagonist potency against Substance P (EC80), normalized to 100 nM Aprepitant, read-out: U251MG (FLIPR pIC50) (converted). How it is done: Measurement of NK1 Receptor Mediated Intracellular [Ca^2+] Mobilization in U251 MG Cells Using FLIPR
U251 MG cells were seeded into black walled clear-bottom 384-well plates (Greiner Bio-One GmbH, Frickenhausen, Germany) at a density of 15,000 cells/well in 50 μl culture medium and cultured overnight in a 37° C. 5% CO2 incubator. The cells were then loaded with the calcium sensitive dye Fluo-4 (Invitrogen) at 1 μM in buffer, containing 0.04%
Pluronic F-127 (Sigma-Aldrich), and 2.5 mM probenecid (Sigma-Aldrich) for 60 min in a humidified atmosphere of 5% CO2. Thereafter, cells were washed three times in washing buffer containing 20 mM HEPES and 2.5 mM probenecid pH 7.3. Serial dilutions of test compounds in assay buffer containing 2% dimethyl sulfoxide (final concentration in the cell plate is 0.5% DMSO) and/or agonist were then automatically pipetted into each test well, and the peak fluorescence intensity was recorded (lex, 488 nm; lem, 540 nm) by the FLIPR instrument (Molecular Devices) for approximately 5 min. To measure antagonist potency, cell plates were first incubated with the test compound and intracellular fluorescence recorded for 5 minutes to check a potential agonist effect of the test compound. Cell plates were quickly removed from the FLIPR instrument and incubated for additional 10 minutes at 37° C. before being moved back to the FLIPR instrument for Substance P (EC80) addition. The response was measured as the peak relative fluorescence change after agonist addition.
The IC50 value is defined as the molar concentration of a test compound that produces a response midway between the fitted top and the fitted bottom. pIC50=−log IC50
Formula is listed as follows: Fit(% Effect calculated)=(A+((B−A)/(1+((C/X)^D)))) • A: bottom value • B: top value • C: […] • D: Hill slope coefficient
Ref: Sullivan E, Tucker E M, and Dale I L. Measurement of [Ca^2+] using the Fluorometric Imaging Plate Reader (FLIPR). Methods Mol Biol 114:125-133, 1999.
Compounds of the present invention were tested according to example 120.
For `CC(=O)N1CCN(CC2CC3C(c4ccccc4C)N(C(=O)N(C)Cc4cc(C(F)(F)F)cc(C(F)(F)F)c4)CCN3C2=O)CC1` (stereo not shown) [Compound 37, 7-[(4-acetylpiperazin-1-yl)methyl]-N-{[3,5-bis(trifluoromethyl)phenyl]methyl}-N-methyl-1-(2-methylphenyl)-6-oxo-octahydropyrrolo[1,2-a]piperazine-2-carboxamide], the IC50 is 0.309 nM.
For the compound `Cc1ccccc1C1C2CCCN2CCN1C(=O)N(C)Cc1cc(C(F)(F)F)cc(C(F)(F)F)c1` (racemic) [Compound 24, N-{[3,5-bis(trifluoromethyl)phenyl]methyl}-N-methyl-1-(2-methylphenyl)-octahydropyrrolo[1,2-a]piperazine-2-carboxamide], the IC50 is 1.35 nM.
As for `Cc1ccccc1C1C2CC(CN3CCOCC3)C(=O)N2CCN1C(=O)N(C)[C@H](C)c1cc(C(F)(F)F)cc(C(F)(F)F)c1` (single isomer, unassigned) [Compound 73], the IC50 is 0.107 nM.
As for `Cc1ccccc1C1C2CC(CCO)(CCO)C(=O)N2CCN1C(=O)N(C)[C@H](C)c1cc(C(F)(F)F)cc(C(F)(F)F)c1` (single isomer, unassigned) [Compound 53], the IC50 is 2.45 nM.
In the case of `Cc1ccccc1C1C2CC(CN3CCOCC3)C(=O)N2CCN1C(=O)N(C)Cc1cc(C(F)(F)F)cc(C(F)(F)F)c1` (single isomer, unassigned) [Compound 40], the IC50 is 7.76 nM.
For `Cc1ccccc1C1C2CC(CN3CCOCC3)C(=O)N2CCN1C(=O)N(C)[C@H](C)c1cc(C(F)(F)F)cc(C(F)(F)F)c1` (single isomer, unassigned) [Compound 71], the IC50 was 28.2 nM.
Consider `COC(=O)C1(C)CC2C(c3ccccc3C)N(C(=O)N(C)Cc3cc(C(F)(F)F)cc(C(F)(F)F)c3)CCN2C1=O` (single isomer, unassigned) [Compound 13, Methyl 2-({[3,5-bis(trifluoromethyl)phenyl]methyl}(methyl)carbamoyl)-7-methyl-1-(2-methylphenyl)-6-oxo-octahydropyrrolo{1,2-a}piperazine-7-carboxylate], for which the IC50 was 4.17 nM.
With `Cc1ccccc1C1C2CC(CCO)(CCO)CN2CCN1C(=O)N(C)[C@H](C)c1cc(C(F)(F)F)cc(C(F)(F)F)c1` (single isomer, unassigned) [Compound 59], the IC50 was 60.3 nM.
Turning to `Cc1ccccc1C1C2CC(CO)CN2CCN1C(=O)N(C)Cc1cc(C(F)(F)F)cc(C(F)(F)F)c1` (single isomer, unassigned) [Compound 48, N-{[3,5-bis(trifluoromethyl)phenyl]methyl}-7-(hydroxymethyl)-N-methyl-1-(2-methylphenyl)-octahydropyrrolo[1,2-a]piperazine-2-carboxamide], the IC50 was 0.224 nM.
In the case of `Cc1ccccc1C1C2CC(CO)CN2CCN1C(=O)N(C)[C@H](C)c1cc(C(F)(F)F)cc(C(F)(F)F)c1` (single isomer, unassigned) [Compound 69], the IC50 was 0.214 nM.
On to `Cc1ccccc1C1C2CC(CO)C(=O)N2CCN1C(=O)N(C)Cc1cc(C(F)(F)F)cc(C(F)(F)F)c1` (single isomer, unassigned) [Compound 23, N-{[3,5-bis(trifluoromethyl)phenyl]methyl}-7-(hydroxymethyl)-N-methyl-1-(2-methylphenyl)-6-oxo-octahydropyrrolo[1,2-a]piperazine-2-carboxamide], for which the IC50 is 0.0776 nM.
In the case of `Cc1ccccc1[C@H]1[C@@H]2CC(CCO)(CCO)C(=O)N2CCN1C(=O)N(C)C(CCO)c1cc(C(F)(F)F)cc(C(F)(F)F)c1` (single isomer, unassigned) [Compound 81], the IC50 was 0.12 nM.
Turning to `Cc1ccccc1C1C2CC(CCO)C(=O)N2CCN1C(=O)N(C)C(CCO)c1cc(C(F)(F)F)cc(C(F)(F)F)c1` (racemic) [Compound 33, N-{1-[3,5-bis(trifluoromethyl)phenyl]-3-hydroxypropyl}-7-(2-hydroxyethyl)-N-methyl-1-(2-methylphenyl)-6-oxo-octahydropyrrolo[1,2-a]piperazine-2-carboxamide], the IC50 was 0.158 nM.
`Cc1ccccc1C1C2CC(C)(C(=O)N(C)C)C(=O)N2CCN1C(=O)N(C)Cc1cc(C(F)(F)F)cc(C(F)(F)F)c1` (single isomer, unassigned) [Compound 25, 2-N-{[3,5-bis(trifluoromethyl)phenyl]methyl}-2-N,7-N,7-N,7-tetramethyl-1-(2-methylphenyl)-6-oxo-octahydropyrrolo[1,2-a]piperazine-2,7-dicarboxamide]: the IC50 was 22.9 nM.
Take `Cc1ccccc1C1C2CC(CN3CCOCC3)C(=O)N2CCN1C(=O)N(C)[C@H](C)c1cc(C(F)(F)F)cc(C(F)(F)F)c1` (single isomer, unassigned) [Compound 74]: the IC50 is 0.0891 nM.
The value for `Cc1ccccc1C1C2CC(CO)CN2CCN1C(=O)N(C)Cc1cc(C(F)(F)F)cc(C(F)(F)F)c1` (single isomer, unassigned) [Compound 28, N-{[3,5-bis(trifluoromethyl)phenyl]methyl}-7-(hydroxymethyl)-N-methyl-1-(2-methylphenyl)-octahydropyrrolo[1,2-a]piperazine-2-carboxamide; methanesulfonic acid salt] was 0.912 nM; that for `Cc1ccccc1C1C2CC(CO)C(=O)N2CCN1C(=O)N(C)Cc1cc(C(F)(F)F)cc(C(F)(F)F)c1` (single isomer, unassigned) [Compound 19, N-{[3,5-bis(trifluoromethyl)phenyl]methyl}-7-(hydroxymethyl)-N-methyl-1-(2-methylphenyl)-6-oxo-octahydropyrrolo[1,2-a]piperazine-2-carboxamide] was 3.72 nM; that for `Cc1ccccc1C1C2CCC(=O)N2CCCN1C(=O)N(C)Cc1cc(C(F)(F)F)cc(C(F)(F)F)c1` (mixture of isomers) [Compound 7, N-{[3,5-bis(trifluoromethyl)phenyl]methyl}-N-methyl-1-(2-methylphenyl)-7-oxo-octahydro-1H-pyrrolo[1,2-a][1,4]diazepine-2-carboxamide] was 1.07 nM.
The value for `Cc1ccccc1C1C2CC(CCO)(CCO)CN2CCN1C(=O)N(C)Cc1cc(C(F)(F)F)cc(C(F)(F)F)c1` (single isomer, unassigned) [Compound 65, N-{[3,5-bis(trifluoromethyl)phenyl]methyl}-7,7-bis(2-hydroxyethyl)-N-methyl-1-(2-methylphenyl)-octahydropyrrolo[1,2-a]piperazine-2-carboxamide] was 30.2 nM; that for `Cc1ccccc1C1C2CC(CO)C(=O)N2CCN1C(=O)N(C)[C@H](C)c1cc(C(F)(F)F)cc(C(F)(F)F)c1` (single isomer, unassigned) [Compound 58] was 11.5 nM.
Take `Cc1ccccc1C1C2CCCN2CCN1C(=O)N(C)[C@H](C)c1cc(C(F)(F)F)cc(C(F)(F)F)c1` (single isomer, unassigned) [Compound 64]: the IC50 is 42.7 nM.
For the compound `Cc1ccccc1C1C2CC(CN3CCCC3)C(=O)N2CCN1C(=O)N(C)Cc1cc(C(F)(F)F)cc(C(F)(F)F)c1` (single isomer, unassigned) [Compound 31, N-{[3,5-bis(trifluoromethyl)phenyl]methyl}-N-methyl-1-(2-methylphenyl)-6-oxo-7-(pyrrolidin-1-ylmethyl)-octahydropyrrolo[1,2-a]piperazine-2-carboxamide], the IC50 was 0.513 nM.
